Literature values, collected in patent publication US20080255200A1, “SUBSTITUTED BENZIMIDAZOLES” (AUSPEX PHARMACEUTICALS, INC., priority 2007, published 2008).

Molecular target: gastric H^+, K^+-ATPase (Homo sapiens, UniProt P20648)
Details: intragastric pH over 4, orally administered

Chain of gastric H^+, K^+-ATPase (P20648 whole entry): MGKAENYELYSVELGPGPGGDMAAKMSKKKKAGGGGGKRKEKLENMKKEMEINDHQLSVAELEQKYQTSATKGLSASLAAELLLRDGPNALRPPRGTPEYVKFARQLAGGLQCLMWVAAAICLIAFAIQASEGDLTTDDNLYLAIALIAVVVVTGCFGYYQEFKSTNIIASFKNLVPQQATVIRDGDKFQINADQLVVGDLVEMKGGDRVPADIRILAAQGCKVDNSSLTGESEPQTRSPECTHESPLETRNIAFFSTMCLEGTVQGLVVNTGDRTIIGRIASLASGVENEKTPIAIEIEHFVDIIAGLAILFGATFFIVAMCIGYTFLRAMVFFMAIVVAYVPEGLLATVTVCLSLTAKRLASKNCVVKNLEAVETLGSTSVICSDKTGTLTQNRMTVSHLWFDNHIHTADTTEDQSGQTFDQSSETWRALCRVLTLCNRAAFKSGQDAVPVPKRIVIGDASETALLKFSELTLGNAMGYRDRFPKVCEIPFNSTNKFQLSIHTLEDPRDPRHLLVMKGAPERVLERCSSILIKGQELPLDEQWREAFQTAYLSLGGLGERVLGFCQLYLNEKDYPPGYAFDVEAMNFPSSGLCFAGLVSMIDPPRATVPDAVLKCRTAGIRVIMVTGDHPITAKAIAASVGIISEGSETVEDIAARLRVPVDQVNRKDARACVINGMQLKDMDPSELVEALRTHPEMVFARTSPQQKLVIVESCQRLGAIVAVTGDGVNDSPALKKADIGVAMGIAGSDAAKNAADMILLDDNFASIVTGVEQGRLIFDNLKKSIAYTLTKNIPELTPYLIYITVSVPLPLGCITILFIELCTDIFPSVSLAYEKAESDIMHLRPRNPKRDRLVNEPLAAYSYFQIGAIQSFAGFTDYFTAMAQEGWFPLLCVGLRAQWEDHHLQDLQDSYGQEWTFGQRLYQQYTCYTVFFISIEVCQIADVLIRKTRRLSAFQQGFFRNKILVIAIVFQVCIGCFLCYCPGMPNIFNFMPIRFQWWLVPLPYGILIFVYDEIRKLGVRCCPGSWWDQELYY
Chain of gastric H^+, K^+-ATPase (P51164 whole entry partner): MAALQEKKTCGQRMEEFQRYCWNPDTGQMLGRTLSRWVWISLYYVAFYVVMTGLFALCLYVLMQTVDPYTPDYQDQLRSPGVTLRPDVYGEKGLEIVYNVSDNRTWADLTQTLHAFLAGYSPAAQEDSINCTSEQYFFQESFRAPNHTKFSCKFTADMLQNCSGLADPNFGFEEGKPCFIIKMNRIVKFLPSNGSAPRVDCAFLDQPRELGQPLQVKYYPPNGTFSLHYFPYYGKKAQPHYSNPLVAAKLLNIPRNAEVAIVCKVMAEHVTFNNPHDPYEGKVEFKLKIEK

COc1ccnc(C[S+]([O-])c2nc3cc(-n4cccc4)ccc3[nH]2)c1C (stereo not shown) [Ilaprazole, 2-(4-methoxy-3-methyl-pyridin-2-ylmethanesulfinyl)-5-pyrrol-1-yl-1H-benzoimidazole]
average time intragastric pH is increased to over 4: 20.5 hours
